Measurements reported in patent US7405220B2, “Pyrazolopyrimidines” (Hoffmann-La Roche Inc., priority 2004, dated 2008).

Assays:
human cyclin E-Cdk2 = human cyclin E-Cdk2 (Homo sapiens, UniProt P24941); assay: Cdk2 FlashPlate kinase assay (Rb phosphorylation); format: biochemical; conditions: recombinant cyclin E-Cdk2, Rb substrate, 1 μM ATP
Procedure: (§1) To determine inhibition of Cdk4, Cdk2 and Cdk1 activity, kinase assays were conducted using FlashPlate™ assays (NEN™-Life Science Products). FlashPlate assays were performed using recombinant human cyclin B-Cdk1, human cyclin E-Cdk2 or human cyclin D1-Cdk4 complexes. GST-cyclinE (GST-cycE), Cdk2, GST-cyclinB (GST-cycB), Cdk1, GST-Cdk4 and cyclin D1 (cycD1) cDNA clones in baculovirus vectors were provided by Dr. W. Harper at the Baylor College of Medicine, Houston, Tex. Proteins were co-expressed in High Five™ insect cells and the complex was purified on glutathione Sepharose resin (Pharmacia, Piscataway, N.J.) as previously described (Harper, J. W. et al. Cell 1993, 75, 805-816). A 6×-Histidine tagged truncated form of retinoblastoma (Rb) protein (amino acid 386-928) was used as the substrate for the cycD1-Cdk4, cycB-Cdk1 and the cycE-Cdk2 assays (the expression plasmid was provided by Dr. Veronica Sullivan, Department of Molecular Virology, Roche Research Centre, Welwyn Garden City, United Kingdom). The Rb protein is a natural substrate for phosphorylation by Cdk4, Cdk2 and Cdk1 (see Herwig and Strauss Eur. J. Biochem. Vol. 246 (1997) pp. 581-601 and the references cited therein).
(§2) The expression of the 62 Kd protein was under the control of an IPTG inducible promoter in an M15 E. coli strain. Cells were lysed by sonication and purification was carried out by binding lysates at pH 8.0 to a Ni-chelated agarose column pretreated with 1 mM imidazole. The resin was then washed several times with incrementally decreasing pH buffers to pH 6.0, and eluted with 500 mM imidazole. Eluted protein was dialysed against 20 mM HEPES pH 7.5, 30% glycerol, 200 mM NaCl, and 1 mM DTT. Purified Rb fusion protein stocks were quantitated for protein concentration, aliquoted, and stored at −70° C.
(§3) For all three kinase assays reported herein, 96-well FlashPlates were coated with Rb protein at 10 μg/ml, using 100 μl per well. Plates were incubated at 4° C. overnight or at room temperature for 3 hours on a shaker. To control for nonspecific phosphorylation, one row of wells was coated with 100 μl/well coating buffer (20 mM HEPES, 0.2 M NaCl). Plates were then washed twice with wash buffer (0.01% Tween 20 in phosphate-buffered saline). Compounds to be tested (“test compounds”) were added to the wells at 5× final concentration. Reactions were initiated by immediate addition of 40 μl reaction mix (25 mM HEPES, 20 mM MgCl2, 0.002% Tween 20, 2 mM DTT, 1 μM ATP, 4 nM 33P-ATP) and a sufficient amount of enzyme to give counts that were at least 10-fold above background. Plates were incubated at room temperature on a shaker for 30 minutes. Plates were washed four times with the wash buffer, sealed, and counted on the TopCount scintillation counter (Packard Instrument Co., Downers Grove, Ill.]. The percent inhibition of Rb phosphorylation, which is a measure of the inhibition of Cdk activity, was determined according to the following formula: […]
(§4) where “test compound” refers to the average counts per minute of the test duplicates, “nonspecific” refers to the average counts per minute when no CyclinD/Cdk4, etc., was added, and “total” refers to the average counts per minute when no compound was added. The IC50 value is the concentration of test compound that reduces by 50% the protein-kinase induced incorporation of the radiolabel under the test conditions described.

human cyclin D1-Cdk4 = human cyclin D1-Cdk4 (Homo sapiens, UniProt P11802); assay: Cdk4 FlashPlate kinase assay (Rb phosphorylation); format: biochemical; conditions: recombinant cyclin D1-Cdk4, Rb substrate, 1 μM ATP
Chain of human cyclin D1-Cdk4 (P11802 whole entry): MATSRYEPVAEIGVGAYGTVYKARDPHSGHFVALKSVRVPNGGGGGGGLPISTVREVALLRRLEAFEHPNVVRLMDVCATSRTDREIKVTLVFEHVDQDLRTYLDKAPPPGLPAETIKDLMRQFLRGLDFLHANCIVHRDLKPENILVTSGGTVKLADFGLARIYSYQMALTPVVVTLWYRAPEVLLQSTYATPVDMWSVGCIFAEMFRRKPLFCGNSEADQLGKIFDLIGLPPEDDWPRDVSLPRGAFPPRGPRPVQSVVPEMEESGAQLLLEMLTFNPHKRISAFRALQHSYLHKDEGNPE
Chain of human cyclin D1-Cdk4 (P24385 whole entry partner): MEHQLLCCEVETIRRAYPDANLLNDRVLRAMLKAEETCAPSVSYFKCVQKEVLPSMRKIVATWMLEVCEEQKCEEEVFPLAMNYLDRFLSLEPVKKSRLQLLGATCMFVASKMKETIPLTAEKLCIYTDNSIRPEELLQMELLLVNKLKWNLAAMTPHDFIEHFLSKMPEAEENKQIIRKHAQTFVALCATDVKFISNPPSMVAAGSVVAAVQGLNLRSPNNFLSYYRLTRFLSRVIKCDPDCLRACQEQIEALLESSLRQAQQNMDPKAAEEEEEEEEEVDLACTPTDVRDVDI
Procedure: as §1, §2, §3, §4

human cyclin B-Cdk1 = human cyclin B-Cdk1 (Homo sapiens, UniProt P06493); assay: Cdk1 FlashPlate kinase assay (Rb phosphorylation); format: biochemical; conditions: recombinant cyclin B-Cdk1, Rb substrate, 1 μM ATP
Chain of human cyclin B-Cdk1 (P06493 whole entry): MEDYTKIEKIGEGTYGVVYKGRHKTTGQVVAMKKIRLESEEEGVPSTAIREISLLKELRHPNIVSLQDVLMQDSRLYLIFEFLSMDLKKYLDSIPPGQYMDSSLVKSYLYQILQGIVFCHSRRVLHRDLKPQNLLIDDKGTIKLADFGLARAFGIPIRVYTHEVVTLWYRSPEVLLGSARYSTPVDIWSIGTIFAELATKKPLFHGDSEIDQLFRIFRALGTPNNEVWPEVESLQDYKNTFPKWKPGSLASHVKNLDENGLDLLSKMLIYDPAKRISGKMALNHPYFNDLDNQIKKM
Chain of human cyclin B-Cdk1 (P14635 whole entry partner): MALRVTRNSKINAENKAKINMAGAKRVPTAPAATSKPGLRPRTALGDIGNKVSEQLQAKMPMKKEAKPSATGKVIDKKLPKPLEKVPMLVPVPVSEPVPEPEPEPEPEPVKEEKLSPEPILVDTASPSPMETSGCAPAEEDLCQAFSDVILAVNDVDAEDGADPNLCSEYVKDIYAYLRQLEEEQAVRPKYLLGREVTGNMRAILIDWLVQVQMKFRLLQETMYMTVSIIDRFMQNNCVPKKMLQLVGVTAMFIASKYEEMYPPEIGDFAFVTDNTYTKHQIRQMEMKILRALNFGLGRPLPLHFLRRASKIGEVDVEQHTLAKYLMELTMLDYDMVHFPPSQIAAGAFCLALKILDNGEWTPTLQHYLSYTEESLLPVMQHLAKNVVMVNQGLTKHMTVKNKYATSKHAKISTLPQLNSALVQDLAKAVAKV
Procedure: as §1, §2, §3, §4

[1] = test system: HCT116, a colorectal carcinoma cell line; assay: Tetrazolium dye (MTT) proliferation assay; format: cell-based; conditions: Homo sapiens, HCT-116; HCT116 cells
Procedure: Proliferation was evaluated by the tetrazolium dye assay according to the procedure of Denizot and Lang (Denizot, F. and Lang, R. J Immunol Methods 1986, 89, 271-277). The cell line used was HCT116, a colorectal carcinoma cell line obtained from the American Type Cell Culture Collection (ATCC; Rockville, Md.). The cells were grown in McCoy's 5A medium supplemented with 10% FCS and L-glutamine.
Cells were plated at the appropriate seeding density to give logarithmic growth over the course of the assay in a 96-well tissue culture plate. Plates were incubated overnight at 37° C. in a humidified incubator with 5% CO2. The next day, test compounds were serially diluted to four times the final concentration in the appropriate medium containing 1.2% DMSO. One-fourth final volume of each dilution was added in duplicate to the plates containing cells. The same volume of 1.2% DMSO in medium was added to a row of “control wells” such that the final concentration of DMSO in each well was 0.3%. Wells to which no cells were added served as the “blank.” Wells to which no inhibitor was added served as “no inhibitor control.” The plates were) returned to the incubator, and at set time points (determined by their growth curves) plates were analyzed as described below.
3-(4,5-dimethylthiazole-2-yl)-2,5-diphenyl-2H-tetrazolium bromide (thiazolyl blue; MTT; Sigma) was added to each well to yield a final concentration of 1 mg/ml. Plates were returned to the incubator for 2.5-3 hours at 37° C. The MTT-containing medium was removed and the resulting formazan metabolite was solubilized in 100% ethanol with shaking for 15 minutes at room temperature. Absorbance readings were taken in a microtiter plate reader (Dynatech and Molecular Devices plate readers were used interchangeably) at a wavelength of 570 nm with a 650 nm reference. Percent inhibition (% INH) is calculated by subtracting the absorbance of the blank well from all wells, then subtracting the ratio of the average absorbance of each test duplicate (SAVE) by the average of the controls (CAVE) from 1.00. The final number is then multiplied by 100 (% INH=(1.00−SAVE/CAVE)×100). The concentration at which 50% inhibition of cell proliferation is obtained (the IC50) is determined from the linear regression of a plot of the logarithm of the concentration versus percent inhibition.

Row | Structure (SMILES) | IC50 (human cyclin E-Cdk2) [nM] | IC50 (human cyclin D1-Cdk4) [nM] | IC50 (human cyclin B-Cdk1) [nM] | IC50 [1] [nM]
1 | CS(=O)(=O)N1CCC(Nc2ncc3c(-c4cccc(F)c4)n[nH]c3n2)CC1 [Example 31, [3-(3-Fluoro-phenyl)-1H-pyrazolo[3,4-d]pyrimidin-6-yl]-(1-methanesulfonyl-piperidin-4-yl)-amine] | 230 | 18.5 | 1140 | 30000
2 | COc1ccc(F)cc1-c1n[nH]c2nc(NC3CCN(S(C)(=O)=O)CC3)ncc12 [Example 25, [3-(5-Fluoro-2-methoxy-phenyl)-1H-pyrazolo[3,4-d]pyrimidin-6-yl]-(1-methanesulfonyl-piperidin-4-yl)-amine] | 77 | 42 |  | 
3 | COc1ccc(Nc2ncc3c(-c4ccccc4OC)n[nH]c3n2)cc1 [Example 39, (4-Methoxy-phenyl)-[3-(2-methoxy-phenyl)-1H-pyrazolo[3,4-d]pyrimidin-6-y]-amine; compound with trifluoro-acetic acid] | 278 |  |  | 
4 | COc1ccccc1-c1n[nH]c2nc(NC3CCN(S(C)(=O)=O)CC3)ncc12 [Example 28] | 18 | 14 | 107 | 1200
5 | CS(=O)(=O)N1CCC(Nc2ncc3c(-c4ccccc4)n[nH]c3n2)CC1 [Example 30, (1-Methanesulfonyl-piperidin-4-yl)-(3-phenyl-1H-pyrazolo[3,4-d]pyrimidin-6-yl)-amine] | 179 | 128 | 262 | 3930
6 | COc1ccc(F)cc1-c1n[nH]c2nc(N[C@H]3CCN(S(C)(=O)=O)C[C@@H]3O)ncc12 [Example 27] | 275 | 4 |  | 1700
7 | CS(=O)(=O)N1CCC(Nc2ncc3cn[nH]c3n2)CC1 [Example 19] | 33 |  | 231 | 9160
8 | COc1ccccc1-c1n[nH]c2nc(Nc3ccc(S(N)(=O)=O)cc3)ncc12 [Example 32, 4-[3-(2-Methoxy-phenyl)-1H-pyrazolo[3,4-d]pyrimidin-6-ylamino]-benzenesulfonamide; compound with trifluoro-acetic acid] | 9 | 36 |  | 
9 | COc1ccc(F)c(F)c1-c1n[nH]c2nc(NC3CCN(S(C)(=O)=O)CC3)ncc12 [Example 16, [3-(2,3-Difluoro-6-methoxy-phenyl)-1H-pyrazolo[3,4-d]pyrimidin-6-yl]-(1-methanesulfonyl-piperidin-4-yl)-amine] | 244 | 41 |  | 4500

Results, then the compound that gave them:

Row | IC50 (human cyclin E-Cdk2) [nM] | IC50 (human cyclin D1-Cdk4) [nM] | IC50 (human cyclin B-Cdk1) [nM] | IC50 [1] [nM] | Structure (SMILES)
10 | 24 |  |  |  | Cc1n[nH]c2nc(Nc3ccc(S(N)(=O)=O)cc3)ncc12 [Example 41, 4-(3-Methyl-1H-pyrazolo[3,4-d]pyrimidin-6-ylamino)-benzenesulfonamide; compound with trifluoro-acetic acid]
11 | 278 |  |  |  | COc1ccccc1-c1n[nH]c2nc(NCCCCCN(C)C)ncc12 [Example 37, N-[3-(2-Methoxy-phenyl)-1H-pyrazolo[3,4-d]pyrimidin-6-yl]-N,N-dimethyl-pentane-1,5-diamine; compound with trifluoro-acetic acid]
12 | 278 |  |  |  | COc1ccccc1Nc1ncc2c(-c3c(F)cccc3F)n[nH]c2n1 [Example 40, [3-(2,6-Difluoro-phenyl)-1H-pyrazolo[3,4-d]pyrimidin-6-yl]-(2-methoxy-phenyl)-amine; compound with trifluoro-acetic acid]
13 | 278 |  |  |  | COc1ccccc1-c1n[nH]c2nc(Nc3ccccc3)ncc12 [Example 38, [3-(2-Methoxy-phenyl)-1H-pyrazolo[3,4-d]pyrimidin-6-yl]-phenyl-amine]
14 | 1850 | 1120 |  |  | COc1ccccc1-c1n[nH]c2nc(NCCCCCN)ncc12 [Example 35, [3-(2-Methoxy-phenyl)-1H-pyrazolo[3,4-d]pyrimidin-6-yl]-pentane-1,5-diamine; compound with trifluoro-acetic acid]
15 | 278 |  |  |  | COc1ccccc1-c1n[nH]c2nc(NCCCN(C)C)ncc12 [Example 36, N′-[3-(2-Methoxy-phenyl)-1H-pyrazolo[3,4-d]pyrimidin-6-yl]-N,N-dimethyl-propane-1,3-diamine]
16 | 278 |  | 1460 |  | Cc1n[nH]c2nc(NC3CCN(C)CC3)ncc12 [Example 23]
17 | 278 |  |  |  | Cc1n[nH]c2nc(NCCO)ncc12 [Example 42, 2-(3-Methyl-1H-pyrazolo[3,4-d]pyrimidin-6-ylamino)-ethanol; compound with trifluoro-acetic acid]
18 | 2500 | 2500 |  |  | Fc1ccc(Nc2ncc3c(-c4c(F)cccc4F)n[nH]c3n2)cc1 [Example 33, [3-(2,6-Difluoro-phenyl)-1H-pyrazolo[3,4-d]pyrimidin-6-yl]-(4-fluoro-phenyl)-amine]
19 | 278 |  | 867 | 32000 | CS(=O)(=O)N1CCC(Nc2ncc3c(-c4c(F)cccc4F)n[nH]c3n2)CC1 [Example 29, [3-(2,6-Difluoro-phenyl)-1H-pyrazolo[3,4-d]pyrimidin-6-yl]-(1-methanesulfonyl-piperidin-4-yl)-amine]
20 | 594 | 344 |  |  | COc1ccccc1-c1n[nH]c2nc(NCCO)ncc12 [Example 34, 2-[3-(2-Methoxy-phenyl)-1H-pyrazolo[3,4-d]pyrimidin-6-ylamino]-ethanol]
21 | 278 |  |  |  | CCOC(=O)N1CCC(Nc2ncc3c(-c4cccc(F)c4)n[nH]c3n2)CC1 [Example 43, 4-[3-(3-Fluoro-phenyl)-1H-pyrazolo[3,4-d]pyrimidin-6-ylamino]-piperidine-1-carboxylic acid ethyl ester; compound with trifluoro-acetic acid]
